Assays:
human V1a receptor = target: T1, human V1a receptor (Homo sapiens, UniProt P37288); assay: Cellular in vitro assay for vasopressin receptor activity, V1a receptor cell line (aequorin luminescence); format: cell-based; settings: for IC50: CHO cell line transfected with human V1a receptor, [Arg8]-vasopressin at EC50 concentration, read-out: IC50 hV1a; for ratio IC50 hV2/hV1a: selectivity ratio of the IC50 values hV2/hV1a
T1 construct: expressed in transfected cells; host or cells: CHO K1 (Chinese hamster ovary), also stably transfected with a modified aequorin
T1 sequence (P37288 whole entry): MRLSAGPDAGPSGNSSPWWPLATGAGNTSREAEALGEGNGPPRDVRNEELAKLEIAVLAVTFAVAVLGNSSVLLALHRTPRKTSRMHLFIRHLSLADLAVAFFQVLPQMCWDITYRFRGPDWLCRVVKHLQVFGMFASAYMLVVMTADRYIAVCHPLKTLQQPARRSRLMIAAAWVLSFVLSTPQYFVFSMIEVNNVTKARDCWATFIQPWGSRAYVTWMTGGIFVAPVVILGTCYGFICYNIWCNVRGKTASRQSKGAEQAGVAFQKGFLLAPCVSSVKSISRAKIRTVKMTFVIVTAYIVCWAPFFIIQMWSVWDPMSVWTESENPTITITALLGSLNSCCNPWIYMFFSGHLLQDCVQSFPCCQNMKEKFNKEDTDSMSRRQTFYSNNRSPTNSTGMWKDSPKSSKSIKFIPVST
Description: (§1) B-1. Cellular In Vitro Assay for Determining Vasopressin Receptor Activity
(§2) The identification of agonists and antagonists of the V1a and V2 vasopressin receptors from humans, rats and dogs as well as the quantification of the activity of the compounds of the invention is carried out using recombinant cell lines. These cell lines originally derive from a hamster's ovary epithelial cell (Chinese Hamster Ovary, CHO K1, ATCC: American Type Culture Collection, Manassas, Va. 20108, USA). The test cell lines constitutively express the human, rat or dog V1a or V2 receptors. In case of the […] V1a receptors, cells are also stably transfected with a modified form of the calcium-sensitive photoproteins aequorin (human and rat V1a) or obelin (dog V1a), which, after reconstitution with the cofactor coelenterazine, emit light when there are increases in free calcium concentrations [Rizzuto R, Simpson A W, Brini M, Pozzan T, Nature 358, 325-327 (1992); Illarionov B A, Bondar V S, Illarionova V A, Vysotski E S, Gene 153 (2), 273-274 (1995)]. The resulting vasopressin receptor cells react to stimulation of the recombinantly expressed V1a receptors by intracellular release of calcium ions, which can be quantified by the resulting photoprotein luminescence. The Gs-coupled V2 receptors are stably transfected into cell lines expressing the gene for firefly luciferase under control of a CRE-responsible promoter. Activation of V2 receptors induces the activation of the CRE-responsive promoter via cAMP increase, thereby inducing the expression of firefly luciferase. The light emitted by photoproteins of V1a cell lines as well as the light emitted by firefly luciferase of V2 cell lines corresponds to the activation or inhibition of the respective vasopressin receptor. The bioluminescence of the cell lines is detected using a suitable luminometer [Milligan G, Marshall F, Rees S, Trends in Pharmacological Sciences 17, 235-237 (1996)].
Vasopressin V1a Receptor Cell Lines:
On the day before the assay, the cells are plated out in culture medium (DMEM/F12, 2% FCS, 2 mM glutamine, 10 mM HEPES, 5 μg/ml coelenterazine) in 384-well microtiter plates and kept in a cell incubator (96% humidity, 5% v/v CO2, 37° C.). On the day of the assay, test compounds in various concentrations are placed for 10 minutes in the wells of the microtiter plate before the agonist [Arg^8]-vasopressin at EC50 concentration is added. The resulting light signal is measured immediately in a luminometer.
(§3) Table 1A below lists individual IC50 values for the compounds of the invention (including racemic mixtures as well as separated enantiomers) that were obtained from cell lines transfected with the human V1a or V2 receptor: […]

human V2 receptor = target: T2, human V2 receptor (Homo sapiens, UniProt P30518); assay: Cellular in vitro assay for vasopressin receptor activity, V2 receptor cell line (CRE-luciferase); format: cell-based; settings: CHO cell line transfected with human V2 receptor; [Arg8]-vasopressin at EC50 concentration; read-out: IC50 hV2
T2 construct: expressed in transfected cells; host or cells: CHO K1 (Chinese hamster ovary) expressing firefly luciferase under a CRE-responsive promoter
T2 sequence (P30518 whole entry): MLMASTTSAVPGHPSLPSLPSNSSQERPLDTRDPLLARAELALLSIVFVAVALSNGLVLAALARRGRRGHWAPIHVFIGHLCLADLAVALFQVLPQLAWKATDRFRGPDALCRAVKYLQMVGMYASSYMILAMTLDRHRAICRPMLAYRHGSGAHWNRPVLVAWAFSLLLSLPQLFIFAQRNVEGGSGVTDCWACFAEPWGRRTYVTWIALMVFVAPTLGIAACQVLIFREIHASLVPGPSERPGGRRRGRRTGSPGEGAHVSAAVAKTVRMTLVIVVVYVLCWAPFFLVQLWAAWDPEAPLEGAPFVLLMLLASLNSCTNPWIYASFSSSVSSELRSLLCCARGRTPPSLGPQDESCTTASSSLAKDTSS
Description: as §1, §2
Vasopressin V2 Receptor Cell Lines:
On the day before the assay, the cells are plated out in culture medium (DMEM/F12, 2% FCS, 2 mM glutamine, 10 mM HEPES) in 384-well microtiter plates and kept in a cell incubator (96% humidity, 5% v/v CO2, 37° C.). On the day of the assay, test compounds in various concentrations and the agonist [Arg^8]-vasopressin at EC50 concentration are added together to the wells, and plates are incubated for 3 hours in a cell incubator. Upon addition of the cell lysis reagent Triton™ and the substrate luciferin, luminescence of firefly luciferase is measured in a luminometer.
as §3

Row | Structure (SMILES) | IC50 (human V1a receptor) [nM] | ratio IC50 hV2/hV1a (human V1a receptor) | IC50 (human V2 receptor) [nM]
1 | CC1(CNC(=O)c2nc(Cn3nc(-c4ccc(Cl)cc4)n(C[C@H](O)C(F)(F)F)c3=O)nn2-c2ncccc2C(F)(F)F)COC1 [Example 53, 3-({3-(4-Chlorophenyl)-5-oxo-4-[(2S)-3,3,3-trifluoro-2-hydroxypropyl]-4,5-dihydro-1H-1,2,4-triazol-1-yl}methyl)-N-[(3-methyloxetan-3-yl)methyl]-1-[3-(trifluoromethyl)pyridin-2-yl]-1H1,2,4-triazole-5-carboxamide] | 0.64 | 98.4 | 63
2 | CC1(O)CCN(C(=O)c2nc(Cn3nc(-c4ccc(Cl)cc4)n(C[C@H](O)C(F)(F)F)c3=O)nn2-c2ncccc2OC(F)(F)F)C1 (stereo partly drawn) [Example 5, 5-(4-Chlorophenyl)-2-[(5-[{3-hydroxy-3-methylpyrrolidin-1-yl]carbonyl}-1-[3-(trifluoromethoxy)pyridin-2-yl]-1H-1,2,4-triazol-3-yl)methyl]-4[(2S)-3,3,3-trifluoro-2-hydroxypropyl]-2,4-dihydro-3H-1,2,4-triazol-3-one] | 10.3 | 108.7 | 1130
3 | COc1cccnc1-n1nc(Cn2nc(-c3ccc(Cl)cc3)n(C[C@H](O)C(F)(F)F)c2=O)nc1C(=O)NCC(C)(C)N [Example 20, N-(2-Amino-2-methylpropyl)-3-({3-(4-chlorophenyl)-5-oxo-4-[(2S)-3,3,3-trifluoro-2-hydroxypropyl]-4,5-dihydro-1H-1,2,4-triazol-1-yl}methyl)-1-(3-methoxypyridin-2-yl)-1H-1,2,4-triazole-5-carboxamide] | 6.95 | 14.9 | 104

Further lines, results first:

Row | IC50 (human V1a receptor) [nM] | ratio IC50 hV2/hV1a (human V1a receptor) | IC50 (human V2 receptor) [nM] | Structure (SMILES)
4 | 0.71 | 40.2 | 28.3 | O=C(NCC(F)(F)F)c1nc(Cn2nc(-c3ccc(Cl)cc3)n(C[C@H](O)C(F)(F)F)c2=O)nn1-c1ncccc1Cl [Example 17, 3-({3-(4-Chlorophenyl)-5-oxo-4-[(2S)-3,3,3-trifluoro-2-hydroxypropyl]-4,5-dihydro-1H-1,2,4-triazol-1-yl}methyl)-1-(3-chloropyridin-2-yl)-N-(2,2,2-trifluoroethyl)-1H-1,2,4-triazole-5-carboxamide]
5 | 0.66 | 124.2 | 82 | CC(C)(O)CNC(=O)c1nc(Cn2nc(-c3ccc(Cl)cc3)n(C[C@H](O)C(F)(F)F)c2=O)nn1-c1ncccc1OC(F)(F)F [Example 1, 3-({3-(4-Chlorophenyl)-5-oxo-4-[(2S)-3,3,3-trifluoro-2-hydroxypropyl]-4,5-dihydro-1H-1,2,4-triazol-1-yl}methyl)-N-(2-hydroxy-2-methylpropyl)-1-[3-(trifluoromethoxy)pyridin-2-yl]-1H1,2,4-triazole-5-carboxamide]
6 | 9.66 | 1.2 | 11.4 | O=C(NCC(F)(F)F)c1nc(Cn2nc(-c3ccc(Cl)cc3)n(C[C@H](O)C(F)(F)F)c2=O)nn1-c1cccc(F)c1 [Example 38, 3-({3-(4-Chlorophenyl)-5-oxo-4-[(2S)-3,3,3-trifluoro-2-hydroxypropyl]-4,5-dihydro-1H-1,2,4-triazol-1-yl}methyl)-1-(3-fluorophenyl)-N-(2,2,2-trifluoroethyl)-1H-1,2,4-triazole-5-carboxamide]
7 | 0.47 | 82.8 | 38.5 | CC(C)(O)CNC(=O)c1nc(Cn2nc(-c3ccc(Cl)cc3)n(C[C@H](O)C(F)(F)F)c2=O)nn1-c1ncccc1C(F)(F)F [Example 52, 3-({3-(4-Chlorophenyl)-5-oxo-4-[(2S)-3,3,3-trifluoro-2-hydroxypropyl]-4,5-dihydro-1H-1,2,4-triazol-1-yl}methyl)-N-(2-hydroxy-2-methylpropyl)-1-[3-(trifluoromethyl)pyridin-2-yl]-1H-1,2,4-triazole-5-carboxamide]
